One data set concerns Haemonchus contortus. Briefly: Method A: Haemonchus contortus L1 larvae, microtitre plate screen. Conditions: 96 h, read-out: motility inhibition.
A further data set has as its system Cooperia oncophora. Briefly: Method C: Cooperia oncophora L1 larvae in vitro. Conditions: 96 h, read-out: inhibition of motility.
The nature of data set [1]: Method G: permeability in the Caco-2/TC7 in vitro model. To be noted: human, Caco-2, pH 6.5.
In data set [2] the test system is microfilaria of Dirofilaria immitis. In words: Method F: microfilaria of Dirofilaria immitis, survival at 24 hours.
[3] abbreviates: survival of microfilaria at 24 hours.

Read-outs that look alike come from different tables or passages of the source.

Take `O=C(CO[C@H]1CC[C@H](Nc2ccc([N+](=O)[O-])c(C(F)(F)F)c2)CC1)N1CCN(Cc2cc3c(F)c(F)ccc3o2)CC1` [Compound 320, 2-[(4-[[4-nitro-3-(trifluoromethyl)phenyl]amino]cyclohexyl)-oxy]1-[4-(4,5-difluorobenzofuran-2-ylmethyl)piperazin-1-yl]ethan-1-one]: the inhibition at 5 µg/mL with Haemonchus contortus and in the data set with Cooperia oncophora was at least 90% each time. In data set [1], the Papp A→B at 20 μM stood at 68 nm/s.
For the compound `O=C(CO[C@H]1CC[C@H](Nc2ccc([N+](=O)[O-])c(C(F)(F)F)c2)CC1)N1CCN(Cc2nc3cc(Cl)ccc3s2)CC1` [Compound 291, 1-[4-[(5-chloro-1,3-benzothiazol-2-yl)methyl]piperazin-1-yl]-2-[4-[4-nitro-3-(trifluoromethyl)anilino]cyclohexoxy]ethanone], the inhibition at 5 µg/mL with Haemonchus contortus and in the data set with Cooperia oncophora was at least 90% throughout. In data set [1], this compound registered a Papp A→B at 20 μM of 62 nm/s.
As for `O=C(CO[C@H]1CC[C@H](Nc2ccc([N+](=O)[O-])c(C(F)(F)F)c2)CC1)N1CCN(Cc2ccc3ccc(C(F)(F)F)cc3n2)CC1` [Compound 328, 2-[4-(4-nitro-3-trifluoromethyl-phenylamino)-cyclohexyloxy]-1-[4-(7-trifluoromethyl-quinolin-2-ylmethyl)-piperazin-1-yl]-ethanone], the inhibition at 5 µg/mL in the data set on Haemonchus contortus and in the data set with Cooperia oncophora was at least 90% each time. The compound further yielded a Papp A→B at 20 μM in data set [1] of 72 nm/s.
Turning to `O=C(CO[C@H]1CC[C@H](Nc2ccc([N+](=O)[O-])c(C(F)(F)F)c2)CC1)N1CCN(Cc2cc3cc(F)ccc3s2)CC1` [Compound 234, 1-[4-[(5-fluoro-1-benzothiophen-2-yl)methyl]piperazin-1-yl]-2-[[4-[[4-nitro-3-(trifluorometh-yl)phenyl]amino]cyclohexyl]oxy]ethan-1-one], the inhibition at 5 µg/mL in the data set on Haemonchus contortus and in the data set on Cooperia oncophora was at least 90% throughout. This compound had an EC50 in data set [2] (setting [3]) below 0.1 mg/L. In data set [1], this compound showed a Papp A→B at 20 μM of 40 nm/s.
For `CC(c1cc2cc(F)ccc2o1)N1CCN(C(=O)CO[C@H]2CC[C@H](Nc3ccc([N+](=O)[O-])c(C(F)(F)F)c3)CC2)CC1` (stereo partly drawn) [Compound 304, 2-[(4-[[4-nitro-3-(trifluoromethyl)phenyl]amino]cyclohexyl)-oxy]1-[4-[1-(5-fluorobenzofuran-2-yl)ethyl]piperazin-1-yl]ethan-1-one], the inhibition at 5 µg/mL with Haemonchus contortus and with Cooperia oncophora was at least 90% each time. The half-maximal effective concentration (EC50) in data set [2] (setting [3]) was below 5 mg/L. Moreover, the Papp A→B at 20 μM in data set [1] was found to be 90 nm/s.
In the case of `O=C(CO[C@H]1CC[C@H](Nc2ccc([N+](=O)[O-])c(C(F)(F)F)c2)CC1)N1CCN(Cc2cc3cc(Cl)ccc3o2)CC1` [Compound 178, 1-[4-[(5-chloro-1-benzofuran-2-yl)methyl]piperazin-1-yl]-2-[(4-[[4-nitro-3-(trifluoromethyl)phenyl]amino]cyclohexyl)oxy]ethan-1-one], the inhibition at 5 µg/mL in the data set on Haemonchus contortus and in the data set with Cooperia oncophora was at least 90% each time. Besides, the EC50 in data set [2] (setting [3]) was below 1 mg/L. This compound returned a Papp A→B at 20 μM in data set [1] of 49 nm/s.
As for `O=C(COc1ccc(Nc2ccc([N+](=O)[O-])c(C(F)(F)F)c2)cc1)N1CCN(CC2Cc3cc(C(F)(F)F)ccc3O2)CC1` (stereo not drawn) [Compound 187, 2-(4-[[4-nitro-3-(trifluoromethyl)phenyl]amino]phenoxy)-1-(4-[[5-(trifluoromethyl)-2,3-dihydro-1-benzofuran-2-yl]methyl]piperazin-1-yl)ethan-1-one], the inhibition at 5 µg/mL in the data set with Haemonchus contortus was at least 90%. Also, the EC50 in data set [2] (setting [3]) is below 1 mg/L. Also, the Papp A→B at 20 μM in data set [1] came out at 55 nm/s.
`N#Cc1ccc(N[C@H]2CC[C@H](OCC(=O)N3CCN(Cc4cc5cc(Cl)ccc5o4)CC3)CC2)cc1C(F)(F)F` [Compound 274, 2-[(4-[[4-cyano-3-(trifluoromethyl)phenyl]amino]cyclohexyl)-oxy]1-[4-(5-chlorobenzofuran-2-ylmethyl)piperazin-1-yl]ethan-1-one]: in the data set on Haemonchus contortus, the inhibition at 5 µg/mL was at least 90%. This compound displayed an EC50 in data set [2] below 1 mg/L. Further, the Papp A→B at 20 μM in data set [1] was determined as 92 nm/s.

Values taken from patent publication US9249102B2 (priority 2012, dated 2016).
